Structures can show the parent of a compound that is named as a salt.
Target: T1, rh beta tryptase (Homo sapiens, UniProt Q15661)
T1 construct: purchased Promega
Experiment: tryptase inhibition test (cleavage of N-p-tosyl-Gly-Pro-Lys-para-nitroaniline, p-nitroaniline measured at 405 nm)
Assay type: biochemical
Settings: Tris HCl buffer pH 7.4 with calcium and heparin; substrate 0.6 mM; 5 min pre-incubation, 5 min incubation at 37° C.; enzyme activity 0.91 U/ml
Method: The compounds according to the invention are characterised by their tryptase-inhibiting activity. This ability to inhibit tryptase was investigated using the test described below. The measurement is carried out in Tris HCl buffer (100 mM), which additionally contains calcium (5 mM) and heparin (100 mg/ml), at pH 7.4. The standard used is rh beta tryptase which may be obtained commercially from Promega, for example. The substrate used is N-p-tosyl-Gly-Pro-Lys-para-nitroaniline in a concentration of 0.6 mM. The substrate is digested with tryptase to form p-nitroaniline which can be measured at 405 nm. Usually, an incubation period of 5 minutes and an incubation temperature of 37° C. are chosen. The enzyme activity used is 0.91 U/ml. The measurements are carried out in an Autoanalyser (CobasBio) made by Hofmann LaRoche. The potential inhibitory substances are used in concentrations of 10 μM in the screening, the inhibition of the tryptase being given in percent. The IC50 is determined at over 70% inhibition (concentration at which 50% of the enzyme activity is inhibited). After 5 minutes' pre-incubation of the potential inhibitory substances, the substrate is added to start the reaction, the formation of p-nitroaniline being taken as a measurement of the enzyme activity after 5 minutes, after testing the linearity.
The data obtained after the above test has been carried out (IC50 values) can be found in Table 3.

T1 sequence (Q15661 31-275): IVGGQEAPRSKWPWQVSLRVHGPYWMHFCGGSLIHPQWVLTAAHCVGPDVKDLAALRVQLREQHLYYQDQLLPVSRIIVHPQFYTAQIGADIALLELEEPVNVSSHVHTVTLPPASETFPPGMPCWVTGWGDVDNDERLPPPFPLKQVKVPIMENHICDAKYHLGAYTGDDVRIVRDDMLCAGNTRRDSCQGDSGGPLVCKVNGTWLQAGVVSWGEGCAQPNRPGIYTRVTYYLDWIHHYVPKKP

| IC50 [nM] | Molecule |
| --- | --- |
| 35 | 1-Methyl-2-[2-(4-amidino- phenyl)-ethyl]-5-[N-(4′-(3″- hydroxypropyl)-piperazin-1-yl- carbonylmethyl)-naphth-2-yl- sulphonylamino]-benzimidazole [Example 51] |
| 25 | CCN(CC)CCN(c1ccc2c(c1)nc(CCc1ccc(C(=N)N)cc1)n2C)S(=O)(=O)c1ccccc1 [Example 2, N-{2-[2-(4-amidinophenyl)-ethyl]-1-methyl-benzimidazol-5-yl}-N-diethylaminoethyl-(benzenesulphonamide)-dihydrochloride] |
| 132 | CCOCCCn1c(CCc2ccc(C(=N)N)cc2)nc2cc(N(CCN(CC)CC)S(=O)(=O)c3ccccc3)ccc21 [Example 3, N-{2-[2-(4-amidinophenyl)-ethyl]-1-(3-ethoxy-propyl)-benzimidazol-5-yl}-N-diethylaminoethyl-(benzenesulphonamide)-dihydrochloride] |
| 123 | CN(C)c1ccc(CN(c2ccc3c(c2)nc(CCc2ccc(C(=N)N)cc2)n3C)S(=O)(=O)c2ccccc2)cc1 [Example 4, N-{2-[2-(4-amidinophenyl)-ethyl]-1-methyl-benzimidazol-5-yl}-N-(4-dimethylaminobenzyl)-(benzenesulphonamide)-dihydrochloride] |
| 100 | CCN(CC)CCN(c1ccc2c(c1)nc(CCc1ccc(CN)cc1)n2C)S(=O)(=O)c1ccccc1 [Example 5, N-{2-[2-(4-aminomethyl-phenyl)-ethyl]-1-methyl-benzimidazol-5-yl}-N-diethylaminoethyl-(benzenesulphonamide)-dihydrochloride] |
| 109 | CCCN(CCC)C1CCC(N(c2ccc3c(c2)nc(CCc2ccc(C(=N)N)cc2)n3C)S(=O)(=O)c2ccccc2)CC1 (centres unmarked) [Example 7, 1-methyl-2-[2-(4-amidino-phenyl)-ethyl]-5-[N-(4-dipropyl-amino-cyclohexanyl)-benzene-sulphonyl-amino]-benzimidazole] |
| 89 | CN1CCC(CN(c2ccc3c(c2)nc(CCc2ccc(C(=N)N)cc2)n3C)S(=O)(=O)c2ccccc2)C1 (centres unmarked) [Example 8, 1-methyl-2-[2-(4-amidino-phenyl)-ethyl]-5-[N-(1-methyl-pyrrolidin-3-yl-methyl)-benzene-sulphonyl-amino]-benzimidazole] |
| 62 | CN1CCCC1CN(c1ccc2c(c1)nc(CCc1ccc(C(=N)N)cc1)n2C)S(=O)(=O)c1ccccc1 (centres unmarked) [Example 9, 1-methyl-2-[2-(4-amidino-phenyl)-ethyl]-5-[N-(1-methyl-pyrrolidin-2-yl-methyl)-benzene-sulphonyl-amino]-benzimidazole] |
| 90 | Cn1c(CCc2ccc(C(=N)N)cc2)nc2cc(N(C3CCNCC3)S(=O)(=O)c3ccccc3)ccc21 [Example 11, 1-methyl-2-[2-(4-amidino-phenyl)-ethyl]-5-[N-(4-piperidinyl)-benzenesulphonyl-amino]-benzimidazole] |
| 179 | CN1CCC(N(c2ccc3c(c2)nc(CCc2ccc(C(=N)N)cc2)n3C)S(=O)(=O)c2ccccc2)CC1 [Example 12, 1-methyl-2-[2-(4-amidino-phenyl)-ethyl]-5-[N-(1-methyl-piperidin-4-yl)-benzene-sulphonylamino]-benzimidazole] |
| 76 | Cn1c(CCc2ccc(C(=N)N)cc2)nc2cc(N(C3CCN(Cc4ccccc4)CC3)S(=O)(=O)c3ccccc3)ccc21 [Example 13, 1-methyl-2-[2-(4-amidino-phenyl)-ethyl]-5-[N-(1-benzyl-piperidin-4-yl)-benzene-sulphonylamino]-benzimidazole] |
| 82 | Cn1c(CCc2ccc(C(=N)N)cc2)nc2cc(N(C3CCNC3)S(=O)(=O)c3ccccc3)ccc21 (centres unmarked) [Example 14, 1-methyl-2-[2-(4-amidino-phenyl)-ethyl]-5-[N-(3-pyrrolidinyl)-benzenesulphonyl-amino]-benzimidazole] |
| 121 | CCN(CC)CCN(c1ccc2c(c1)nc(CCc1ccc(C(=N)N)cc1)n2CCO)S(=O)(=O)c1ccccc1 [Example 16, 1-(2-hydroxyethyl)-2-[2-(4-amidinophenyl)-ethyl]-5-[N-(2-diethylaminoethyl)-benzene-sulphonylamino]-benzimidazole] |
| 62 | CCN(CC)CCN(c1ccc2c(c1)nc(CCc1ccc(C(=N)N)cc1)n2CCOC)S(=O)(=O)c1ccccc1 [Example 17, 1-(2-methoxyethyl)-2-[2-(4-amidinophenyl)-ethyl]-5-[N-(2-diethylaminoethyl)-benezene-sulphonylamino]-benzimidazole] |
| 292 | CCCn1c(CCc2ccc(C(=N)N)cc2)nc2cc(N(CCN(CC)CC)S(=O)(=O)c3ccccc3)ccc21 [Example 18, 1-n-propyl-2-[2-(4-amidino-phenyl)-ethyl]-5-[N-(2-diethyl-aminoethyl)-benzenesulphonyl-amino]-benzimidazole] |
| 239 | CCN(CC)CCN(c1ccc2c(c1)nc(CCc1ccc(C(=N)N)cc1)n2CCCO)S(=O)(=O)c1ccccc1 [Example 19, 1-(3-hydroxypropyl)-2-[2-(4-amidinophenyl)-ethyl]-5-[N-(2-diethylaminoethyl)-benzene-sulphonylamino]-benzimidazole] |
| 190 | CCN(CC)CCN(c1ccc2c(c1)nc(CCc1ccc(C(=N)N)cc1)n2CCc1ccccc1)S(=O)(=O)c1ccccc1 [Example 24, 1-(2-phenylethyl)-2-[2-(4-amidinophenyl)-ethyl]-5-[N-(2-diethylaminoethyl)-benzene-sulphonylamino]-benzimidazole] |
| 412 | CCN(CC)CCN(c1ccc2c(c1)nc(CCc1ccc(C(=N)N)cc1)n2CCCc1ccccc1)S(=O)(=O)c1ccccc1 [Example 25, 1-(3-phenylpropyl)-2-[2-(4-amidinophenyl)-ethyl]-5-[N-(2-diethylaminoethyl)-benzene-sulphonylamino]-benzimidazole] |
| 74 | CCN(CC)CCN(c1ccc2c(c1)nc(CCc1ccc(C(=N)N)cc1)n2CCOc1ccccc1OC)S(=O)(=O)c1ccccc1 [Example 26, 1-[2-(2-methoxyphenoxy)ethyl]-2-[2-(4-amidinophenyl)-ethyl]-5-[N-(2-diethylaminoethyl)-benzenesulphonylamino]-benzimidazole] |
| 273 | CCN(CC)CCN(c1ccc2c(c1)nc(CCc1ccc(C(=N)N)cc1)n2CC1CCCO1)S(=O)(=O)c1ccccc1 (centres unmarked) [Example 27, 1-(2-tetrahydrofurylmlethyl)-2-[2-(4-amidinophenyl)-ethyl]-5-[N-(2-diethylaminoethyl)-benzenesulphonylamino]-benzimidazole] |
| 27 | CCN(CC)CCN(c1ccc2c(c1)nc(CCc1ccc(C(=N)N)cc1)n2C)S(=O)(=O)c1cccc2ccccc12 [Example 28, 1-methyl-2-[2-(4-amidino-phenyl)-ethyl]-5-[N-(2-diethyl-aminoethyl)-naphth-1-yl-sulphonylamino]-benzimidazole] |
| 44 | Cn1c(CCc2ccc(C(=N)N)cc2)nc2cc(N(CCN3CCCCC3)S(=O)(=O)c3ccccc3)ccc21 [Example 33, 1-methyl-2-[2-(4-amidino-phenyl)-ethyl]-5-[N-(2-piperidin-1-ylethyl)-benzene-sulphonylamino]-benzimidazole] |
| 43 | Cn1c(CCc2ccc(C(=N)N)cc2)nc2cc(N(CCN3CCCC3)S(=O)(=O)c3ccccc3)ccc21 [Example 34, 1-methyl-2-[2-(4-amidino-phenyl)-ethyl]-5-[N-(2-pyrrolidin-1-ylethyl)-benzene-sulphonylamino]-benzimidazole] |
| 6.6 | CCN(CC)CCN(c1ccc2c(c1)nc(CCc1ccc(C(=N)N)cc1)n2C)S(=O)(=O)c1ccc2ccccc2c1 [Example 35, 1-methyl-2-[2-(4-amidino-phenyl)-ethyl]-5-[N-(2-diethylaminoethyl)-naphth-2-yl-sulphonylamino]-benzimidazole] |
| 25 | CCN(CC)CCN(c1ccc2c(c1)nc(CCc1ccc(C(=N)N)cc1)n2C)S(=O)(=O)c1csc2ccccc12 [Example 43, 1-Methyl-2-[2-(4-amidino-phenyl)-ethyl]-5-[N-(2-diethyl-aminoethyl)-benzo[b]thien-3-yl-sulphonylamino]-benzimidazole] |
| 22 | Cn1c(CCc2ccc(C(=N)N)cc2)nc2cc(N(Cc3ccccn3)S(=O)(=O)c3ccc4ccccc4c3)ccc21 [Example 44, 1-Methyl-2-[2-(4-amidino-phenyl)-ethyl]-5-[N-(pyrid-2-yl-methyl)-naphth-2-ylsulphonyl-amino]-benzimidazole;] |
| 22 | Cn1c(CCc2ccc(C(=N)N)cc2)nc2cc(N(Cc3cccnc3)S(=O)(=O)c3ccc4ccccc4c3)ccc21 [Example 45, 1-Methyl-2-[2-(4-amidino-phenyl)-ethyl]-5-[N-(pyrid-3-yl-methyl)-naphth-2-ylsulphonyl-amino]-benzimidazole;] |
| 30 | Cn1c(CCc2ccc(C(=N)N)cc2)nc2cc(N(CC(=O)N3CCC(Cc4ccccc4)CC3)S(=O)(=O)c3ccc4ccccc4c3)ccc21 [Example 46, 1-Methyl-2-[2-(4-amidino-phenyl)-ethyl]-5-[N-(4′-benzyl-piperid-1-yl-carbonylmethyl)-naphth-2-ylsulphonylamino]-benzimidazole] |
| 70.3 | Cn1c(CCc2ccc(C(=N)N)cc2)nc2cc(N(CCN3CCOCC3)S(=O)(=O)c3ccc4ccccc4c3)ccc21 [Example 47, 1-Methyl-2-[2-(4-amidino-phenyl)-ethyl]-5-[N-(2-morpholinoethyl)-naphth-2-yl-sulphonylamino]-benzimidazole] |
